# Experimental data taken from ChEMBL document CHEMBL5120799, “A Nrf-2 Stimulatory Hydroxylated Cannabidiol Derivative from Hemp (Cannabis sativa)” (J Nat Prod, 2022).
# Active and inactive are the calls of the source. The calls are words filed in the database; no cut-off is given here.
# Assays:
# [1] = molecular target: T1, Nuclear factor erythroid 2-related factor 2 (Homo sapiens) (UniProt Q16236); assay: Activation of Nrf2 transcriptional activity in human HaCaT-ARE-Luc cells at 1 to 25 uM incubated for 6 hrs by luciferase activity assay; type: cell-based; details: filed as activator, dose 1-25 µM
# T1 sequence (whole entry): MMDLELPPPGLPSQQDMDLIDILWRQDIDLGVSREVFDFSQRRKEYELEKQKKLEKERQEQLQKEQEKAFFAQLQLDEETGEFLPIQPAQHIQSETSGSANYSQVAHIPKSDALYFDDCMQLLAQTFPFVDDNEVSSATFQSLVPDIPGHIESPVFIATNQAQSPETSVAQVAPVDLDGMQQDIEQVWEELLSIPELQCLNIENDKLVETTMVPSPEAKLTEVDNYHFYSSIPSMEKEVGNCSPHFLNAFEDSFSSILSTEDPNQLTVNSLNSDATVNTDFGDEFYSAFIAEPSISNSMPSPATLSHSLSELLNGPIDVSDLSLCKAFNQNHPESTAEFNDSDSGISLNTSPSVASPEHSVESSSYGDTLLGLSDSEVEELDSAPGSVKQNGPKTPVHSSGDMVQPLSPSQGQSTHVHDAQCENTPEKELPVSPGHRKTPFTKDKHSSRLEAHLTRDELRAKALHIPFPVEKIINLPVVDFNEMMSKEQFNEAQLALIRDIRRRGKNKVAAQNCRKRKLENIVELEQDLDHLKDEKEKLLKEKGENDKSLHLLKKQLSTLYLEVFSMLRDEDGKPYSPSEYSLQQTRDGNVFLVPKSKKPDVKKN
# HaCaT [2] = assay: Inhibition of TBHP-induced ROS production in human HaCaT cells assessed as reduction on intracellular ROS level at 25 uM pretreated for 30 mins followed by TBHP stimulation and measured after 3 hrs by DCFH2-DA staining analysis; type: functional, cell-based; details: time 3.5 hrs
# [3] = molecular target: T1, Nuclear factor erythroid 2-related factor 2 (Homo sapiens); assay: Activation of Nrf2 transcriptional activity in human HaCaT-ARE-Luc cells at 25 uM incubated for 6 hrs by luciferase activity assay relative to control; type: cell-based; details: filed as activator
# [4] = molecular target: T1, Nuclear factor erythroid 2-related factor 2 (Homo sapiens); assay: Activation of Nrf2 transcriptional activity in human HaCaT-ARE-Luc cells at 10 uM incubated for 6 hrs by luciferase activity assay relative to control; type: cell-based; details: filed as activator
# HaCaT [5] = assay: Inhibition of TBHP-induced ROS production in human HaCaT cells assessed as reduction on intracellular ROS level at 1 to 25 uM pretreated for 30 mins followed by TBHP stimulation and measured after 3 hrs by DCFH2-DA staining analysis; type: functional, cell-based; details: dose 1-25 µM, time 3.5 hrs, DDE = dose-dependent effect
# [6] = molecular target: T1, Nuclear factor erythroid 2-related factor 2 (Homo sapiens); assay: Activation of Nrf2 transcriptional activity in human HaCaT-ARE-Luc cells at 1 uM incubated for 6 hrs by luciferase activity assay relative to control; type: cell-based
SMILES,Activity [1],inhibition (HaCaT [2]),Activity [3],Activity [4],inhibition (HaCaT [5]),Activity [6]
C=C(C)[C@@H]1CCC(C)=C[C@H]1c1c(O)cc(CCCCC)cc1O,Active,,,,,
C=C1CC[C@@H](C(=C)C)[C@H](c2c(O)cc(CCCCC)cc2O)[C@H]1O,,Active,202%,144%,Dde,20%
